From patent US20250375464A1, “FORMULATIONS FOR MODULATING MYC EXPRESSION” (FLAGSHIP PIONEERING INNOVATIONS V, INC., priority 2022, published 2025)

What was measured:
SKHEP1 tumors = assay: SKHEP1 subcutaneous xenograft in nude mice; type: in vivo; conditions: 50 mg/kg orally daily
Experimental: Animals were dosed every 5 days.
Sorafenib was given daily at 50 mg/kg.

[1] = Overall animal (body) weight in the tumor studies (FIGS. 14-16, 20); type: in vivo, mice; conditions: doses as in the respective tumor study
Hep 3B tumors = assay: Hep 3B subcutaneous xenograft in nude mice, tumor volume
Experimental: In this example, 0.6 mg/ml LNP (MC3) formulated effector (dCas9-MQ1/GD-17) was delivered to tumor sites by intratumoral injection on day 1 and day 7 (20 μl/mice) in the test group animals. The control group mice were injected at the tumor site either with PBS or with 0.6 mg/ml LNP (MC3) control effector dCas9/GD-SafeHarbor (20 μl/mice). Each control and test group consisted of 6 animals having SubQ Hep3B Xenografts (250 mm^3). Changes in tumor volume for each group was measured every 3 days for 15 days. At the end of 15 days, the changes in mean tumor volume were measured using Paired T-test and was plotted.
(§1) Hep 3B tumor cells were implanted into the left flank of thirty female nude mice to induce tumor. Changes in tumor volume was measured and the treatment initiated when mean tumor volume reached approximately 100-150 mm^3. Mice were divided into treatment and control groups so that mean tumor volume in each group were approximately equal. Control groups were injected either with PBS or with MYCi975, a small molecule comparator. The mice in each group were injected intratumorally with PBS (every 5 days for 3 doses then switched to IV for 2 doses), intravenously with ZF9-MQ1 (every 5 days at 3 mg/kg) or intraperitoneally with MYCi975 (once daily for 5 days/week). All animals were weighed daily and assessed visually. Changes in tumor volume for each group were measured 3 times per week. Over the course of 22 days, the changes in body weight from baseline and the mean tumor volume were measured using Paired T-test and was plotted (FIG. 14A-B).
Hep 3B tumor cells were implanted into the left flank of seventy-two female nude mice to induce tumor. Changes in tumor volume was measured and the treatment initiated when mean tumor volume reached approximately 200 mm^3. Mice were divided into nine treatment groups (8 mice each) so that mean tumor volume in each group was approximately equal. The mice in each group were injected intravenously with PBS (every 5 days for 3 doses then every 3 days for 3 doses), ZF9-MQ1 at 1 mg/kg and 3 mg/kg (every 5 days for 3 doses then every 3 days for 3 doses), co-formulated ZF9-MQ1+ZF3-KRAB at 1 mg/kg and 3 mg/kg (every 5 days for 3 doses then every 3 days for 3 doses), negative control mRNA at 1 mg/kg and 3 mg/kg (every 5 days for 3 doses then every 3 days for 3 doses), intraperitoneal with MYCi975 at 100 mg/kg (once daily for 5 days per week) or intraperitoneal with cisplatin at 1 mg/kg (once every 15 days). All animals were weighed daily and assessed visually. Changes in tumor volume were measured 3 times per week.
Disease was induced in female nude mice by the implantation of Hep 3B tumor cells into the left flank. […] All animals were weighed daily and assessed visually. Tumors sizes were measured 3 times per week. […]

[2] = Body weight and tolerability of tumor bearing mice
Experimental: as §1
All animals were weighed daily and assessed visually.

HEPG2 tumors = assay: HepG2 subcutaneous xenograft in nude mice; type: in vivo; design: dose or concentration left out as unconfirmed
Hep3B-luc tumors = assay: Orthotopic Hep3B-luc model, tumor bioluminescence; type: in vivo, mice (Fox Chase CB17 SCID; nude); conditions: nude mice
Experimental: Tumor progression was measured by luminescence. […] It is unclear whether this is related to treatment. […] Statistically significant differences were observed between treatment groups.
Sorafenib was given orally (PO) daily (QD) as a standard of care control. Tumor progression was measured by luminescence. No animal deaths were noted.

SMILES	tumor growth (SKHEP1 tumors)	overall animal (body) weight, result in words [1]	tumor growth relative to PBS controls (Hep 3B tumors; 50 mg/kg orally every day (Example 35))	tumor growth relative to PBS controls (Hep 3B tumors; Example 40, 50 mg/kg orally daily)	tumor growth relative to PBS control (Hep 3B tumors; Example 43, 25 mg/kg QD alone, 16 days)	weight gain ([2]; SK-HEP-1 subcutaneous, 50 mg/kg orally daily)	body weight ([2]; orthotopic Hep3B-luc, SCID mice, ZF9-MQ1+ZF3-KRAB 1.5-6 mg/kg every 5 days, sorafenib 50 mg/kg daily orally)	tumor growth (HEPG2 tumors)	tumor luminescence relative to PBS controls (Hep3B-luc tumors; Example 45, 50 mg/kg orally daily)	tumor luminescence relative to PBS controls (Hep3B-luc tumors; Example 46, 50 mg/kg PO QD)	increase in tumor volume (Hep 3B tumors; Example 44, 25 mg/kg alone, 12 days)
CNC(=O)c1cc(Oc2ccc(NC(=O)Nc3ccc(Cl)c(C(F)(F)F)c3)cc2)ccn1 [sorafenib]	statistically significant reduction in tumor growth	initial drop in body weight with a later gain in overall body weight	statistically significant reduction in tumor growth	statistically significant reduction in tumor growth	did not significantly reduce tumor growth	Statistically significant reductions in weight gain	initial drop in body weight	statistically significant reduction in tumor growth	statistically significant reduction in tumor luminescence	statistically significant reduction in tumor luminescence	
Cc1sc2c(c1C)C(c1ccc(Cl)cc1)=N[C@@H](CC(=O)OC(C)(C)C)c1nnc(C)n1-2 [JQ1]											did not significantly inhibit
